From patent US20030186887A1, “Compounds for detection of infection by chlamydophila abortus” (priority 2000, published 2003)
Ends that are not written are not given here. * marks the point of attachment. Biotin = O=C1N[C@H]2[C@H](CS[C@H]2CCCCC(=O)*)N1

Legend:
[1] = tested on: sera from ewes known not to have been infected with C. abortus; SPF lamb antisera; assay: ELISA, specificity of peptides with sera from uninfected ewes and SPF lamb antisera (first Table 4); type: binding, sheep; set-up: reactivity with serum (quantity not given): unit not given here
Protocol: (§1) Application of the peptide mixture is performed as follows:
(§2) Two dilutions of standard serum are used.
Specificities of Peptides 2-9,2-10, 1B, 1A/1A and 4B/4B as tested with sera from ewes known not to have been infected with C. abortus, and which had shown positive reactivity in previous tests with various forms of VS 1 and VS2.

[2] = tested on: antibodies to C. abortus; assay: ELISA, serological reactivity of biotinylated peptides against serum dilutions (Tables 1 and 2); type: binding, sheep
Protocol: as §1, §2
The data illustrate that the length of compound has a major impact on serological reactivity.
Thus, substitutions within the core epitopes described in this invention are possible without too much loss in compound serological reactivity.

[3] = SPF lamb antiserum 2397/2 C.ab, vaccinated with S26/3 (C. abortus)
[4] = SPF lamb antiserum 2401/2 C.ab, vaccinated with S26/3 (C. abortus)
[5] = SPF lamb antiserum 2405/2 C.ab, vaccinated with 28/28 (C. abortus)
[6] = SPF lamb antiserum 2406/2 C.ab, vaccinated with 28/68 (C. abortus)
[7] = SPF lamb antiserum 2407/2 W73, vaccinated with W73 (C. pecorum)
[8] = SPF lamb antiserum F6/2 Cap.ab, vaccinated with Cap. abortion 15 (C. abortus)
[9] = SPF lamb serum 2397/1, pre-vaccination

| Substance | reactivity with serum (quantity not given) [1, 3] | reactivity with serum (quantity not given) [1, 4] | reactivity with serum (quantity not given) [1, 5] | reactivity with serum (quantity not given) [1, 6] | reactivity with serum (quantity not given) [1, 7] | reactivity with serum (quantity not given) [1, 8] | reactivity with serum (quantity not given) [1, 9] | reactivity with serum (quantity not given) ([1]; serum of animal no. 1354R) | reactivity with serum (quantity not given) ([1]; serum of animal no. A2213) | reactivity with serum (quantity not given) ([1]; serum of animal no. B2123) | reactivity with serum (quantity not given) ([1]; serum of animal no. Z2611) | Net Optical Density ([2]; serum dilution 1/100) | Net Optical Density ([2]; serum dilution 1/200) | Net Optical Density ([2]; serum dilution 1/400) | Net Optical Density ([2]; serum dilution 1/800) | Net Optical Density ([2]; serum dilution 1/1600) | Net Optical Density ([2]; serum dilution 1/3200) | Net Optical Density ([2]; serum dilution 1/6400) | reactivity with serum (quantity not given) ([1]; serum of animal no. 2948) | further results |
| --- | --- | --- | --- | --- | --- | --- | --- | --- | --- | --- | --- | --- | --- | --- | --- | --- | --- | --- | --- | --- |
| KTITGMTGTAAANYKTITGM (KTITGMTGTAAANYKTITGM) [Compound 1B] | OVER | OVER | OVER | OVER | 1.3 | 0.9 | OVER | 2.3 | OVER | 1.55 | 0.6 |  |  |  |  |  |  |  |  | reactivity with serum (quantity not given) ([1]; serum of animal no. 3178): 0.7; reactivity with serum (quantity not given) ([1]; serum of animal no. Z2680): 0.5 |
| Biotin-KKKKKKGSSIAAD [Compound 2-2] |  |  |  |  |  |  |  |  |  |  |  | 1.515 | 0.786 | 0.385 | 0.174 | 0.068 | 0.046 | 0.024 |  | reactivity relative to that displayed by Compound 2-3 ([2]; studies of Table 1): approximately 70% |
| TGTAAANYKTTGTAAANYKT (TGTAAANYKTTGTAAANYKT) [Compound 1A/1A] | OVER | OVER | OVER | OVER | 1.8 | 0.9 | OVER | 2.3 | OVER | 2.0 | 1.0 |  |  |  |  |  |  |  | 0.6 | specificity compared with 1B (in words) [1]: less specific; reactivity with serum (quantity not given) ([1]; SPF lamb antiserum F4/2 84-796, vaccinated with 84-796 (C. pecorum)): 0.4; reactivity with serum (quantity not given) ([1]; SPF lamb antiserum F7/2 P787, vaccinated with P787 (C. pecorum)): 0.5; reactivity with serum (quantity not given) ([1]; serum of animal no. A2261): 0.7; reactivity with serum (quantity not given) ([1]; serum of animal no. Y10-8-14): 1.2; reactivity with serum (quantity not given) ([1]; serum of animal no. Y10-8-37): 0.8; reactivity with serum (quantity not given) ([1]; serum of animal no. Z2646): 0.4; reactivity with serum (quantity not given) ([1]; serum of animal no. Z2656): 0.66 |
| Biotin-CLIGVKGSSAAD [Compound 2-4] |  |  |  |  |  |  |  |  |  |  |  | 2.173 | 1.241 | 0.572 | 0.278 | 0.133 | 0.064 | 0.040 |  |  |
| Biotin-KGSSIAAD [Compound 2-1] |  |  |  |  |  |  |  |  |  |  |  | 0.000 | 0.000 | 0.000 | 0.000 | 0.000 | 0.000 | 0.000 |  | reactivity (in words) ([2]; studies of Table 1): no reactivity whatsoever |
| GVKGSSIAADQGVKGSSIAADQ (GVKGSSIAADQGVKGSSIAADQ) [Compound 2-10] | 3.1 | 1.5 | 2.6 | 1.6 |  |  |  | 0.9 |  |  |  |  |  |  |  |  |  |  | 0.5 | reactivity with serum (quantity not given) ([1]; serum of animal no. 1715T): 0.3; reactivity with serum (quantity not given) ([1]; serum of animal no. 3174): 1.3; reactivity with serum (quantity not given) ([1]; serum of animal no. A2332): 1.0; reactivity with serum (quantity not given) ([1]; serum of animal no. Z2600): 1.1; reactivity with serum (quantity not given) ([1]; serum of animal no. Z2708): 0.55 |
